Measured values: EP4417602A1, “SUBSTITUTED PYRAZOLE CARBOXAMIDES, SALTS THEREOF AND THEIR USE AS HERBICIDALLY ACTIVE SUBSTANCES” (Bayer AG, priority 2023, dated 2024)

Legend:
[1] = test system: ZEAMX; assay: D. Pre-emergence effects on crop plants (Tables D); format: in vivo, Zea mays; conditions: crop plant
Excerpt: (§1) Seeds of mono- and dicotyledonous weed plants and crop plants were sown, in plastic or organic planting pots, in sandy loam and covered with soil. The compounds according to the invention, formulated in the form of wettable powders (WP) or as emulsifiable concentrates (EC), were applied to the surface of the covering soil as aqueous suspension or emulsion, with the addition of 0.5% of an additive, at an application rate of 6001 of water/ha (converted).
(§2) Following treatment, the pots were placed in a greenhouse and kept under optimum growth conditions for the test plants. The visual grading of the damage to the test plants was carried out after ca. 3 weeks in comparison to untreated controls (herbicidal effect in percent (%): 100% effect = plants have died off, 0% effect = as control plants).
(§3) Tables D1 to D5 below show the effects of various compounds of the general formula (I) according to Table 1 on various crop plants and an application rate corresponding to 320 g/ha or below obtained by the experimental procedure mentioned above in Biological Examples, Section C. Table D1a: pre-emergence activity at 320g/ha against ZEAMX in %

[2] = test system: ZEAMX; assay: F. Post-emergence effects on crop plants (Tables F); format: in vivo, Zea mays; conditions: crop plant
Excerpt: (§4) Seeds of mono- and dicotyledonous weed plants and crop plants were sown, in plastic or organic planting pots, in sandy loam, covered with soil and grown in a greenhouse under controlled growth conditions. 2 to 3 weeks after sowing, the test plants were sprayed in the single-leaf stage. The compounds according to the invention, formulated in form of wettable powders (WP) or as emulsifiable concentrates (EC), were sprayed onto the green plant parts as aqueous suspension or emulsion, with the addition of 0.5% of an additive, at an application rate of 6001 of water/ha (converted). The test plants were placed in the greenhouse for ca. 3 weeks under optimum growth conditions, and then the effect of the preparations was assessed visually in comparison with untreated controls (herbicidal effect in percent (%): 100% effect = plants have died off, 0% effect = as control plants). Tables F1 to F5 below show the effects of selected compounds of the general formula (I) according to table 1 on various crop plants and an application rate corresponding to 320 g/ha or below obtained by the experimental procedure mentioned above. Table […]: post-emergence activity at 320g/ha against ZEAMX in %

[3] = test system: GLXMA; assay: D. Pre-emergence effects on crop plants (Tables D); format: in vivo, Glycine max; conditions: crop plant
Excerpt: as §1, §2, §3

[4] = test system: TRZAS; assay: F. Post-emergence effects on crop plants (Tables F); format: in vivo, Triticum aestivum; conditions: crop plant
Excerpt: as §4

[5] = test system: TRZAS; assay: D. Pre-emergence effects on crop plants (Tables D); format: in vivo, Triticum aestivum; conditions: crop plant
Excerpt: as §1, §2, §3

[6] = test system: GLXMA; assay: F. Post-emergence effects on crop plants (Tables F); format: in vivo, Glycine max; conditions: application rate 320 g/ha, crop plant
Excerpt: as §4

[7] = test system: BRSNW; assay: D. Pre-emergence effects on crop plants (Tables D); format: in vivo, Brassica napus; conditions: crop plant
Excerpt: as §1, §2, §3

[8] = test system: BRSNW; assay: F. Post-emergence effects on crop plants (Tables F); format: in vivo, Brassica napus; conditions: application rate 320 g/ha, crop plant
Excerpt: as §4

[9] = test system: POAAN; assay: B. Herbicidal post-emergence action on harmful plants (Tables B); format: in vivo, Poa annua
Outline: (§5)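 Greenhouse weeds grown in sandy loam were sprayed post-emergence at the one-leaf stage, 2-3 weeks after sowing. Compounds were applied as WP or EC in water with 0.5% additive at 600 L/ha, at 1280 g/ha or below. Visual damage was rated after about 3 weeks versus untreated plants (0-100%).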

[10] = test system: SETVI; assay: A. Herbicidal pre-emergence action on harmful plants (Tables A); format: in vivo, Setaria viridis; conditions: visual grading after ca. 3 weeks vs untreated controls, 100% = plants have died off, 0% = as control plants
Outline: (§6)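 Values are visual percent damage relative to untreated controls, scored ca. 3 weeks after the compound was sprayed on the covering soil of sown pots (sandy loam) at rates up to 1280 g/ha, formulated as WP or EC with 0.5% additive.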

[11] = test system: ALOMY; assay: as above; format: in vivo, Alopecurus myosuroides
Outline: as §6

[12] = test system: POAAN; assay: as above; format: in vivo, Poa annua
Outline: as §6

[13] = test system: ABUTH; assay: B. Herbicidal post-emergence action on harmful plants (Tables B); format: in vivo, Abutilon theophrasti
Description: (§7) Seeds of mono- and dicotyledonous weed plants were placed in plastic pots in sandy loam soil (doubly sown with in each case one species of mono- or dicotyledonous weed plants per pot), covered with soil and cultivated in a greenhouse under controlled growth conditions. 2 to 3 weeks after sowing, the test plants were treated at the one-leaf stage. The compounds of the invention, formulated in the form of wettable powders (WP) or as emulsion concentrates (EC), were applied onto the green parts of the plants as aqueous suspension or emulsion with addition of 0.5% additive at a water application rate of 600 liters per hectare (converted). After the test plants had been kept in the greenhouse under optimum growth conditions for about 3 weeks, the activity of the preparations was rated visually in comparison to untreated controls. For example, 100% activity = the plants have died, 0% activity = like control plants. Tables B1 to B12, below, show the effects of selected compounds of the general formula (I) according to table 1 on various harmful plants and an application rate corresponding to 1280 g/ha or below obtained by the experimental procedure mentioned above. Table B1a: post-emergence activity at 1280g/ha against ABUTH in %

[14] = test system: ECHCG; assay: as above; format: in vivo, Echinochloa crus-galli
Outline: as §5

[15] = test system: MATIN; assay: as above; format: in vivo, Matricaria inodora
Description: as §7

[16] = test system: ECHCG; assay: A. Herbicidal pre-emergence action on harmful plants (Tables A); format: in vivo, Echinochloa crus-galli; conditions: visual grading after ca. 3 weeks vs untreated controls, 100% = plants have died off, 0% = as control plants
Outline: as §6

[17] = test system: DIGSA; assay: as above; format: in vivo, Digitaria sanguinalis
Outline: as §6

[18] = test system: STEME; assay: as above; format: in vivo, Stellaria media; conditions: visual grading after ca. 3 weeks vs untreated controls, 100% = plants have died off, 0% = as control plants
Outline: as §6

[19] = test system: SETVI; assay: B. Herbicidal post-emergence action on harmful plants (Tables B); format: in vivo, Setaria viridis; conditions: application rate 1280 g/ha; Table B5
Description: as §7

[20] = test system: MATIN; assay: A. Herbicidal pre-emergence action on harmful plants (Tables A); format: in vivo, Matricaria inodora; conditions: visual grading after ca. 3 weeks vs untreated controls, 100% = plants have died off, 0% = as control plants
Outline: as §6

[21] = test system: VERPE; assay: as above; format: in vivo, Veronica persica; conditions: application rate 1280 g/ha; Table A11
Excerpt: Seeds of mono- and dicotyledonous weed plants were sown in plastic pots (double sowings with one species of mono- and one species of dicotyledonous weed plants per pot), in sandy loam, and covered with soil. The compounds according to the invention, formulated in the form of wettable powders (WP) or as emulsifiable concentrates (EC), were applied to the surface of the covering soil as aqueous suspension or emulsion, with the addition of 0.5% of an additive, at an application rate of 6001 of water per hectare (converted). Following treatment, the pots were placed in a greenhouse and kept under optimum growth conditions for the test plants. The visual grading of the damage to the test plants was carried out after ca. 3 weeks in comparison to untreated controls (herbicidal effect in percent (%): 100% effect = plants have died off, 0% effect = as control plants). Tables A1 to A12, below, show the effects of selected compounds of the general formula (I) according to table 1 on various harmful plants and an application rate corresponding to 1280 g/ha or below obtained by the experimental procedure mentioned above. Table A1: pre-emergence activity at 1280g/ha against ABUTH in %

[22] = test system: VERPE; assay: B. Herbicidal post-emergence action on harmful plants (Tables B); format: in vivo, Veronica persica
Outline: as §5

[23] = test system: DIGSA; assay: as above; format: in vivo, Digitaria sanguinalis; conditions: application rate 1280 g/ha; Table B12a
Description: as §7

[24] = test system: AMARE; assay: A. Herbicidal pre-emergence action on harmful plants (Tables A); format: in vivo, Amaranthus retroflexus
Outline: as §6

[25] = test system: LOLRI; assay: as above; format: in vivo, Lolium rigidum; conditions: visual grading after ca. 3 weeks vs untreated controls, 100% = plants have died off, 0% = as control plants
Outline: as §6

[26] = test system: STEME; assay: B. Herbicidal post-emergence action on harmful plants (Tables B); format: in vivo, Stellaria media; conditions: application rate 1280 g/ha; Table B6
Description: as §7

[27] = application rate 1280 g/ha, visual grading after ca. 3 weeks vs untreated controls, 100% = plants have died off, 0% = as control plants

Cn1cc(C(=O)N2CCCC2Cc2ccccc2F)c(COCC2COC2)n1 (racemic) [Example I-091]
pre-emergence activity against ZEAMX ([1]; application rate 80 g/ha, Table D1b): 0% | pre-emergence activity against ZEAMX ([1]; application rate 320 g/ha, Table D1a): 0% | post-emergence activity against ZEAMX in % ([2]; application rate 80 g/ha): 0% | post-emergence activity against ZEAMX in % ([2]; application rate 320 g/ha): 0% | pre-emergence activity against GLXMA ([3]; application rate 80 g/ha, Table D4b): 0% | pre-emergence activity against GLXMA ([3]; application rate 320 g/ha, Table D4a): 0% | post-emergence activity against TRZAS in % ([4]; application rate 80 g/ha): 0% | post-emergence activity against TRZAS in % ([4]; application rate 320 g/ha): 0% | pre-emergence activity against TRZAS ([5]; application rate 80 g/ha, Table D2b): 0% | pre-emergence activity against TRZAS ([5]; application rate 320 g/ha, Table D2a): 0% | post-emergence activity against GLXMA in % [6]: 0% | pre-emergence activity against BRSNW in % ([7]; application rate 80 g/ha): 0% | pre-emergence activity against BRSNW in % ([7]; application rate 320 g/ha): 0% | post-emergence activity against BRSNW in % [8]: 0%

COCc1nn(C)cc1C(=O)N1CCCC1Cc1c(F)cccc1F (single isomer, unassigned) [Example I-082]
post-emergence activity against POAAN ([9]; application rate 80 g/ha, Table B7c): 90% | post-emergence activity against POAAN ([9]; application rate 320 g/ha, Table B7b): 90% | post-emergence activity against POAAN ([9]; application rate 1280 g/ha, Table B7a): 100% | pre-emergence activity against SETVI ([10]; application rate 80 g/ha): 90% | pre-emergence activity against SETVI ([10]; application rate 320 g/ha): 100% | pre-emergence activity against SETVI ([10]; application rate 1280 g/ha): 100% | pre-emergence activity against ALOMY ([11]; application rate 320 g/ha, Table A9b): 90% | pre-emergence activity against ALOMY ([11]; application rate 1280 g/ha, Table A9a): 90% | pre-emergence activity against POAAN ([12]; application rate 80 g/ha, Table A7c): 100% | pre-emergence activity against POAAN ([12]; application rate 320 g/ha, Table A7b): 100% | pre-emergence activity against POAAN [12, 27]: 100% | post-emergence activity against ABUTH ([13]; application rate 320 g/ha, treated at the one-leaf stage, rated visually after about 3 weeks vs untreated controls, 100% = the plants have died, 0% = like control plants): 90% | post-emergence activity against ABUTH ([13]; application rate 1280 g/ha, Table B1a): 90% | post-emergence activity against ECHCG ([14]; application rate 320 g/ha, Table B2b): 90% | post-emergence activity against ECHCG ([14]; application rate 1280 g/ha, Table B2a): 90% | post-emergence activity against MATIN ([15]; application rate 320 g/ha, Table B4b): 90% | post-emergence activity against MATIN ([15]; application rate 1280 g/ha, Table B4a): 90% | pre-emergence activity against ECHCG ([16]; application rate 80 g/ha): 90% | pre-emergence activity against ECHCG ([16]; application rate 320 g/ha): 90% | pre-emergence activity against ECHCG ([16]; application rate 1280 g/ha): 100% | pre-emergence activity against DIGSA ([17]; application rate 80 g/ha, Table A12c): 100% | pre-emergence activity against DIGSA ([17]; application rate 320 g/ha, Table A12b): 100% | pre-emergence activity against DIGSA ([17]; application rate 1280 g/ha, Table A12a): 100% | pre-emergence activity against STEME ([18]; application rate 80 g/ha): 90% | pre-emergence activity against STEME ([18]; application rate 320 g/ha): 90% | pre-emergence activity against STEME ([18]; application rate 1280 g/ha): 90% | post-emergence activity against SETVI [19]: 90% | pre-emergence activity against MATIN ([20]; application rate 80 g/ha): 90% | pre-emergence activity against MATIN ([20]; application rate 320 g/ha): 90% | pre-emergence activity against MATIN ([20]; application rate 1280 g/ha): 90% | pre-emergence activity against VERPE [21]: 90% | post-emergence activity against VERPE ([22]; application rate 320 g/ha, Table B11b): 90% | post-emergence activity against VERPE ([22]; application rate 1280 g/ha, Table B11a): 90% | post-emergence activity against DIGSA [23]: 90% | pre-emergence activity against AMARE ([24]; application rate 320 g/ha, Table A8b): 90% | pre-emergence activity against AMARE [24, 27]: 90% | pre-emergence activity against LOLRI ([25]; application rate 80 g/ha): 90% | pre-emergence activity against LOLRI ([25]; application rate 320 g/ha): 100% | pre-emergence activity against LOLRI ([25]; application rate 1280 g/ha): 100% | post-emergence activity against STEME [26]: 90%
